Test [1] relates to AKT2. The test is described as follows: Protein array (ProtoArray), binding to AKT2. Further details: species or system human. On the procedure:
Synbodies were screened on an Invitrogen ProtoArray™ (Life Technologies, Carlsbad, CA, USA) detected with Alexa-555 labeled streptavidin (Life Technologies), and scanned using a Perkin Elmer ProScan Array HTP. The spots were analyzed using GenePix Pro (Molecular Devices, Sunnyvale, CA, USA) and data were processed using Genespring GX (Agilent Technologies, Santa Clara, CA, USA). Synbodies were labeled with biotin using either Maleimide-PEG2-Biotin (Thermo Pierce, Rockford, IL, USA) to label the C-terminal cysteine or biotin was incorporated during synbody synthesis by replacing the C-terminal cysteine with Lys-biotin (Novabiochem, San Diego, CA, USA). Synbodies were screened on the array using the recommended protocol with the following modifications: the arrays were blocked with 5 mL blocking buffer (50mM HEPES pH 7.5, 200 mM NaCl, 0.08% Triton X-100, 25% Glycerol, 20mM reduced Glutathione, 1.0mM DTT, 1% BSA) for 90 min. A 200 nM synbody solution was incubated in probing buffer (1× PBS, 1% BSA, 0.1% Tween) for 90 minutes. Slides were dried by centrifugation at 200g for 1 minute and scanned at 100% laser power and 70% photomultiplier voltage. The gal file was obtained for each array by submitting the barcode of the array to www.invitrogen.com/protoarray.
Heat maps were constructed using median-normalized data from each ProtoArray. […]

The target in test [2] is T1, AKT1 (Homo sapiens, UniProt P31749). The test is described as follows: IP of AKT1 from pre-cleared A549 lysate with silver stain detection. In kind it is binding. Also on record: purchased Life Technologies. On the procedure: However, to more rigorously test the specificity of the synbody, we reduced the molar ratio of synbody to protein to approximately 2 to 1 and performed an IP to examine other proteins that were non-specifically bound by the synbody. In this experiment, 400 ng of AKT1 (66.4 nM) was spiked into 100 and 500 µg of A549 cell lysate pre-cleared on streptavidin beads (Figure S3) and precipitated using streptavidin beads coated with 15 pmols of synbody. Synbody coated beads and uncoated streptavidin beads were incubated overnight, washed, and bound proteins were eluted. Elution samples were split with half of the sample analyzed by silver stain and half analyzed by Western Blot (Figure 3E).
(§1) For all IP experiments, either a 1 µM or 250 nM solution of biotin-conjugated synbody was captured on 20 µL of streptavidin coated paramagnetic M-280 Dynabeads (Life Technologies) according to the manufacturers protocol. Synbody coated beads were washed five times with 1 mL of 100 mM phosphate buffered saline containing 0.05% Tween-20 (PBST) and incubated overnight at 4°C with shaking in the desired amount of target protein in A549 cell lysate. For Kd determination experiments, serial dilutions of AKT1 or ABL1 were prepared in binding buffer. After binding, beads were washed five times with 1 mL of PBST and heated at 70°C in 20 µL of 1× LDS loading buffer (Invitrogen) for 10 minutes. The samples were analyzed by SDS-PAGE gel with Western Blot detection using the appropriate antibody and imaged on a GE Healthcare Typhoon Trio.
Due to the high-level of A549 lysate protein binding to the magnetic beads used previously, we pre-cleared the cell lysate prior to IP. This was accomplished by overnight incubation of 1 mL of lysate (∼5 mg/mL) with 1 mL of streptavidin beads. The supernatant was removed and this lysate was used in subsequent experiments. […] One half of each elution sample was analyzed by SDS-PAGE followed by staining using a SNAP Silver Stain kit (Thermo Pierce) while the other half of the sample was analyzed by SDS-PAGE with Western Blot detection as before.

Test [3] addresses T1, AKT1. The test is described as follows: SPR screening against immobilized AKT1. In kind it is binding. Further details: purchased Life Technologies. Conditions: 100 nM synbody, Biacore T-100, CM5 amine coupling, 25°C immobilization, 90 s association, 240 s dissociation. The procedure:
The synbody (100nM concentration) was screened by Surface Plasmon Resonance (SPR) against immobilized AKT1 and GRP58 on a Biacore T-100 SPR. The synbody appeared to have high affinity for AKT1 and low affinity for GRP58 (Figure S2). To accurately determine the binding kinetics of the synbody-AKT1 complex, several concentrations of synbody were injected over a low-density surface of biotin-labeled AKT1 captured on a Neutratvidin SPR chip using a Biacore A-100.
SPR screening of the synbody against AKT1 and GRP58 was performed on a Biacore T-100 (GE Healthcare, Piscataway, NJ, USA). The series S sensor chip CM5, amine coupling reagents and HBS-EP were obtained from GE Healthcare. A standard amine immobilization protocol was performed at 25°C using NaHCO3 (10mM in 150mM NaCl, pH 4.5) as the immobilization buffer. The CM-5 dextran chip was activated by a 10 minute injection of a freshly prepared 1∶1 solution of 400 mM 1-ethyl-3-(3-dimethylaminopropyl)-carbodimide (EDC): 100 mM N-hydroxysuccimide (NHS) in water. The NHS-carboxy groups of the dextran surface were treated with a solution of AKT1 or GRP58 (25 µg/ml) in sodium acetate (pH 5.0) for 8 mins at a flow rate of 10 µl/min. Any residual active sites were then quenched by a 5 min pulse of ethylene diamine (1M, pH 8.5). […]

Test [4] has as its target T1, AKT1. Briefly: IP of AKT1 spiked into A549 cell lysate, Western Blot. In kind it is binding. Further details: purchased Life Technologies. Conditions: 200 ng AKT1 (33.2 nM). The procedure:
As a preliminary test of specificity, 200 ng of AKT1 (33.2 nM) was spiked into increasing amounts of cell lysate prepared from un-stimulated A549 lung epithelial cells and streptavidin beads coated with 25 pmols of synbody (7.6∶1 synbody-to-AKT1 ratio) were used to pull down AKT1 using the same IP procedure and Western Blot protocol as before.
as §1
A general note: Immunoblotting shows a protein as a band on a membrane.

Bridge positions count the residues as written; N and C are the ends. Ends that are not written are not given here. I, II: the chains in the order shown. * marks the point of attachment. StBu = CC(C)(C)S*

T1 sequence (P31749 whole entry): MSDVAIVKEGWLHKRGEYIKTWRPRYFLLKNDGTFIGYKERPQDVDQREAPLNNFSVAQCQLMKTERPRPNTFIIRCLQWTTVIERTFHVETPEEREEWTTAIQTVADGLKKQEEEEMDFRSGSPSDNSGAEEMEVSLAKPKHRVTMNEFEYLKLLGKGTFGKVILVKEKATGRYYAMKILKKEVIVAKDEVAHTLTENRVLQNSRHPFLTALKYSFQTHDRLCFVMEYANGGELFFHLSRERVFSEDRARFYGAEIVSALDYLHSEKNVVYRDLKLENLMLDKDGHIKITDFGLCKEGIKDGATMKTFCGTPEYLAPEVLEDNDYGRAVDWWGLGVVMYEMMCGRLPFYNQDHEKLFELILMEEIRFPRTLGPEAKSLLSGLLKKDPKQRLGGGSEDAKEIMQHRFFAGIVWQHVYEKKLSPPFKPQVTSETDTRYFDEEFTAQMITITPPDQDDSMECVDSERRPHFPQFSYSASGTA

“I: AHKVVPQRQIRHAYNRYGSGKC(StBu)-NH2 / II: FRGWAHIFFGPHVIYRGGSG (amide I:21-II:C) [synbody]”: in test [1], the “binding to AKT2 on protein array” value is “little binding”. The “proteins precipitated (silver stain)” value in test [2] (400 ng AKT1 (66.4 nM) in pre-cleared A549 lysate, 500 µg (5mg/ml), 15 pmols synbody (approx. 2:1)) is listed as “AKT1 was precipitated along with two other prominent proteins”. For the same substance, in test [2] (400 ng AKT1 in 100 or 500 µg pre-cleared A549 lysate, Western Blot confirmation), the dominant band precipitated result is reported as “the dominant band precipitated by the synbody was AKT1”. For the same substance, the “specificity” value in test [2] (IP silver stain, A549 lysate) is recorded as “useful, though not perfect specificity”. In addition, the “affinity for AKT1 by SPR screening” value in test [3] was “high affinity”. In addition, the “excess cell extract in the presence of which AKT1 is precipitated” value in test [4] (25 pmols synbody (7.6:1), A549 lysate) is recorded as 2,500 fold excess. Further, the “precipitation of AKT1 from A549 lysate” value in test [4] (25 pmols synbody (7.6:1 synbody-to-AKT1), increasing A549 lysate) is listed as “successfully pulled AKT1 out of the cell lysate in the presence of an increasing concentration of A549 lysate with little reduction in AKT1 signal intensity”.
